Like-named read-outs stand apart in the source and are kept apart here.
How the values were obtained:
[1] = Ex vivo permeation and penetration across porcine vaginal tissue (Franz diffusion cell, IVPT); type: in vitro ADME; set-up: Concentration in vaginal tissue: unit not given here
Source text: FIG. 116 is an in vitro tissue permeation test in vaginal tissue comparing Compound II to ABI-1968. […] Bars B and C show the tissue penetration of a 0.1% Compound II gel in human cervical tissue. […] This may be a contributing factor to the performance of ABI-1968 in clinical studies. […] This is described in Example 41.
Freshly harvested porcine vaginal tissue was procured from local slaughterhouse in an ice box. The vaginal tissue was cut open to expose the mucosal surface and tissue was cleaned by gentle flow of PBS pH 7.4. The porcine vaginal tissue was cut into circular portions (approximately 2 cm^2) with help of a […] punch.
The circular portion of tissue was sandwiched between two chambers of a Franz diffusion cell with an active diffusion area of 1 cm^2, and the mucosal layer was exposed to the donor chambers. The resistance across porcine vaginal tissue was measured using a wave form generator to ensure the integrity of the tissue segment used for the permeation study. Porcine vaginal tissue with resistance of ≥3 KΩ·cm^2 was used for study. The receiver chamber was filled with 8 ml of 5% solutol PBS 7.4 pH, which was stirred at 600 rpm with a 3 mm magnetic stir bar and the temperature was maintained at 37° C. with a circulating water bath.
The ˜200 mg of gel was filled into tared 1 mL syringe and gel was dispensed to donor chamber. The gel was spread on to mucosal surface with pre weighed applicator. After loading and spreading of the gel onto surface of mucosal surface, the weight of 1 mL syringe and applicator was noted to determine the exact amount of gel loaded into donor chamber.
Time course (2 h, 4 h and 8 h) porcine vaginal permeation studies were performed. After loading gel, 500 μL samples were withdrawn from the receiver compartment at different time intervals and each time an equal volume of fresh receiver media was used to replace withdrawn samples. The sample withdrawn at each time interval were stored immediately in −20° C. until analysis. After 2, 4 and 8 h, the formulation was removed from the donor chamber with help of syringe and cleaned with cotton swab. The tissue was removed and washed gently with wash solution (50% methanol in water) 5 times and alternatively cleaning with cotton swab.
An 8 mm punch of active diffusion area of washed porcine vaginal tissue was removed, weighed and transferred into a tube. This tube was immediately placed into dry ice for ˜15 min. After specified time, tissue was removed and placed in precooled dish. The tissue was minced into smaller pieces on a dish with a precooled surgical blade. The minced tissue was transferred to sample tubes and dish was rinsed with 1 ml of 5% solutol in PBS 7.4 pH and transferred to same tissue sample tube. These tubes were stored in −70° C. until analysis. […]

[2] = Solubility in buffers, water and simulated vaginal fluid at 37° C.
Protocol: About 4 mg of Compound I Pattern 1 was added into 2 mL of buffer solution.
(§1) Solubility was tested in five media, pH 3.0 citrate buffer, pH 4.5 acetate buffer, pH 6.8 phosphate buffer, water, simulated vaginal fluid (pH 4.2) at 37° C. for 0.5 h and 2 h.
The salt amount used is equivalent to 10 mg anhydrous free base. […] The obtained clear solutions were analyzed by pH meter for pH, and solubility was determined by observation.
as §1

[3] = Hygroscopicity by DVS at 25° C.; type: physicochemical
Protocol: Hygroscopicity was investigated by DVS at 25° C., using the following method: • Method: 40-0-95-0-40% RH, dm/dt=0.002

[4] = Bulk (accelerated) stability, one week, HPLC and XRPD; details: for HPLC purity, Initial: initial chemical purity before storage
Protocol: Bulk stability: Accelerated stability experiments were conducted at 25° C./92% RH and 40° C./75% RH in an open container, 60° C. in a tight container for one week.
Samples were characterized by XRPD and HPLC and inspected for color change.
Accelerated stability experiments were conducted at 25° C./92% RH in an open container, at 40° C./75% RH in an open container, and at 60° C. in a tight container for one week.

[5] = 25° C., 92% RH, open container, one week

CCCCCCCCCCCCCCCCCCOCCOP(=O)(COCCn1cnc2c(=O)[nH]c(N)nc21)OCc1ccccc1 (stereo not drawn) [ABI-1968]
Concentration in vaginal tissue ([1]; 3% dose, FIG. 116): < 15 | Tissue penetration ([1]; porcine vaginal tissue, FIG. 116, 0.1% Compound II gel, 1% and 3% ABI-1968 formulations): substantially smaller degree | Tissue concentration ([1]; up to a 3% dose, Bar F and G in FIG. 116): < 15 ng/mg

CCOC(=O)C(C)NP(=O)(COCCn1cnc2c(OC)nc(N)nc21)OCc1ccccc1.CCOC(=O)C(C)NP(=O)(COCCn1cnc2c(OC)nc(N)nc21)OCc1ccccc1.O=C(O)C=CC(=O)O (mixture of isomers) [Compound I hemifumarate]
Solubility 0.5 hrs [2]: >2000 µg/mL | Solubility 2 hrs [2]: >2000 µg/mL | Solubility 0.5 hrs ([2]; pH 3): >2000 µg/mL | Solubility 2 hrs ([2]; pH 3): >2000 µg/mL | Solubility 0.5 hrs ([2]; pH 4.2): >2000 µg/mL | Solubility 2 hrs ([2]; pH 4.2): >2000 µg/mL | Solubility 0.5 hrs ([2]; pH 4.5): >2000 µg/mL | Solubility 2 hrs ([2]; pH 4.5): >2000 µg/mL | Solubility 0.5 hrs ([2]; pH 6.8): >2000 µg/mL | Solubility 2 hrs ([2]; pH 6.8): >2000 µg/mL | pH at 2 hrs ([2]; solution in simulated vaginal fluid (pH adjusted with 0.2N NaOH), 37° C.): (5.30) | Desorption (%) Cycle 1 ([3]; 0% RH, DVS 25° C.): 0.13% | Desorption (%) Cycle 2 ([3]; 0% RH, DVS 25° C.): 0.00% | Sorption (%) Cycle 1 ([3]; 0% RH, DVS 25° C.): 0.13% | Sorption (%) Cycle 2 ([3]; 0% RH, DVS 25° C.): 0.00% | Desorption (%) Cycle 1 ([3]; 10% RH, DVS 25° C.): 0.36% | Desorption (%) Cycle 2 ([3]; 10% RH, DVS 25° C.): 0.23% | Sorption (%) Cycle 1 ([3]; 10% RH, DVS 25° C.): 0.34% | Sorption (%) Cycle 2 ([3]; 10% RH, DVS 25° C.): 0.20% | Desorption (%) Cycle 1 ([3]; 20% RH, DVS 25° C.): 0.56% | Desorption (%) Cycle 2 ([3]; 20% RH, DVS 25° C.): 0.44% | Sorption (%) Cycle 1 ([3]; 20% RH, DVS 25° C.): 0.53% | Sorption (%) Cycle 2 ([3]; 20% RH, DVS 25° C.): 0.40% | Desorption (%) Cycle 1 ([3]; 30% RH, DVS 25° C.): 0.79% | Desorption (%) Cycle 2 ([3]; 30% RH, DVS 25° C.): 0.68% | Sorption (%) Cycle 1 ([3]; 30% RH, DVS 25° C.): 0.73% | Sorption (%) Cycle 2 ([3]; 30% RH, DVS 25° C.): 0.61% | Desorption (%) Cycle 1 ([3]; 40% RH, DVS 25° C.): 1.04% | Desorption (%) Cycle 2 ([3]; 40% RH, DVS 25° C.): 0.94% | Sorption (%) Cycle 1 ([3]; 40% RH, DVS 25° C.): 0.96% | Sorption (%) Cycle 2 ([3]; 40% RH, DVS 25° C.): 0.87% | Desorption (%) Cycle 2 ([3]; 50% RH, DVS 25° C.): 1.26% | Sorption (%) Cycle 1 ([3]; 50% RH, DVS 25° C.): 1.22% | Desorption (%) Cycle 2 ([3]; 60% RH, DVS 25° C.): 1.68% | Sorption (%) Cycle 1 ([3]; 60% RH, DVS 25° C.): 1.57% | Desorption (%) Cycle 2 ([3]; 70% RH, DVS 25° C.): 2.25% | Sorption (%) Cycle 1 ([3]; 70% RH, DVS 25° C.): 2.04% | Desorption (%) Cycle 2 ([3]; 80% RH, DVS 25° C.): 3.14% | Sorption (%) Cycle 1 ([3]; 80% RH, DVS 25° C.): 2.80% | Desorption (%) Cycle 2 ([3]; 90% RH, DVS 25° C.): 4.84% | Sorption (%) Cycle 1 ([3]; 90% RH, DVS 25° C.): 4.54% | Desorption (%) Cycle 2 ([3]; 95% RH, DVS 25° C.): 6.87% | Sorption (%) Cycle 1 ([3]; 95% RH, DVS 25° C.): 6.87% | XRPD after DVS test ([3]; after humidity cycle 40-0-95-0-40% RH, 25° C.): No form change, | Water uptake ([3]; up to / in 95% RH, DVS 25° C.): ~6.9% | HPLC purity after storage [4, 5]: 97.0% | XRPD after storage [4, 5]: No change | HPLC purity after storage ([4]; 40° C., 75% RH, open container, one week): 90.9% | HPLC purity after storage ([4]; 60° C., tight container, one week): 82.3% | HPLC purity, Initial ([4]; listed as Compound I Hemifumarate Pattern 1): 97.8% | HPLC purity, Initial ([4]; listed as Compound I hemifumarate Pattern 1): 97.8%

From patent US20250295679A1, “Compositions and Dosage Forms for Treatment of HPV Infection and HPV-Induced Neoplasia” (priority 2022, published 2025)
